Patent US20100093670A1, “Compounds for the treatment of angiogenesis” (priority 2006, published 2010)
Entries after “also recorded” stand apart in the source; their conditions may differ.

Key:
Type in all cases: cell-based, human
HUVEC cells [1] = assay: HUVEC cell morphology (shrinkage), time lapse imaging
Description: HUVEC cells (ATCC, VA) (passage number 4) were cultured in EGM2 medium (Cambrex, Mass.) on 24-well plates and time lapse imaging was performed in a cell culture system mounted on an inverted microscope supplied with 5% CO2. The temperature was kept at 35° C. Images were taken every 60 sec using 20× objective (FIGS. 1-3) or every 30 min using 2× objective (FIG. 4) for up to 90 hr. FIGS. 1-3 show results from three time points of treatment: 0, 50, 100 min. […] Most shrunken cells were at cell cycle interphase but not mitotic stage, and still moving on the culture surface, as observed in time-lapse movies (data not shown). The shrinking effect caused by Compound 249 (and CA4) is not identical to the apoptotic effect in mitotic cells after microtubule depolymerization.

HUVEC cells [2] = assay: HUVEC migration, wound healing assay with time-lapse imaging; settings: for inhibition of HUVEC migration to the blank area: 24, 48 and 72 hr after treatment, compared to DMSO
Excerpt: Using the above described time-lapse culture system, a wound healing assay was used to analyze the effect of Compound 249 and CA4 on HUVEC cells migration. Confluent HUVEC cultures were scraped similarly to make a blank area. Migration of remaining cells under different treatment was imaged at the same time to generate time-lapse image sequences. Time-lapse movies were further analyzed to calculate the number of cells that migrated to the blank area. In FIG. 4, the gray lines show the front line of cells after scraping and the red lines show the front lines of cells after migration at 24, 48 and 72 hr after treatment.

[3] = system: VE-cadherin junctions of HUVEC cells; assay: VE-cadherin junctions of HUVEC cells, immunostaining; settings: 24 hrs
Description: It was thought that these phenotypic changes might be associated with alterations of endothelial cell junctions. To determine if Compound 249 induced disengagement of HUVEC cell junctions, VE-cadherin junctions of HUVEC cells were examined. HUVEC cells were treated with DMSO or Compound 249 (0.1, 1, or 10 nM) for 24 hrs and fixed for immunostaining. DMSO concentration was 1:100 for all treatment. To boost the immunofluorescence signal, cells were stained with a mixture of two polyclonal anti-human VE-cadherin Abs (1:1 mixed, obtained from Amersham Biosciences, N.J., and Santa Cruz Biotechnology, Calif.) followed by staining with a mixture of fluorescent secondary antibodies. […] Non-DMSO treated cells gave a similar result to those with DMSO treatment (data not shown). With 1 nM Compound 249 treatment, VE-cadherin staining was reduced (red arrow in Compound 249 1 nM) compared to that in DMSO or Compound 249 0.1 nM treatment. […] In addition, the potent effect of Compound 249 on microtubule cytoskeletons can also contribute strongly to the cell-cell junction disruption.

[4] = 1 nM, compared to DMSO treatment

## COc1ccc(/C=C\c2cc(OC)c(OC)c(OC)c2)cc1O [CA4, Combretastatin A4, reference compound]
HUVEC cells [1]; [4]
  HUVEC cell shrinkage / morphological change: did not cause obvious morphological changes
HUVEC cells [1]; 10 nM
  HUVEC cell shrinkage / morphological change: caused a similar change on HUVEC cells
HUVEC cells [2]; 1 nM
  absolute migrated cell numbers (quantitative analysis, FIG. 5): much less of an effect on HUVEC migration
  inhibition of HUVEC migration to the blank area: did not block the migration event
HUVEC cells [2]; 5 nM
  absolute migrated cell numbers (quantitative analysis, FIG. 5): similar
  inhibition of HUVEC migration to the blank area: significantly blocked migration

## COc1ccc(-c2cnoc2-c2cc(OC)c(OC)c(OC)c2)cc1N [Compound 249, 2-methoxy-5-(5-(3,4,5-trimethoxyphenyl)isoxazol-4-yl)aniline]
[3]; 1 nM
  disengagement of VE-cadherin junctions: some of the VE-cadherin junctions were disengaged
[3]; 1 nM, compared to DMSO or 0.1 nM
  VE-cadherin staining at cell-cell junctions: reduced
[3]; 10 nM
  VE-cadherin staining at cell-cell junctions: significantly abolished VE-cadherin staining
  disengagement of cell junctions: most of the cell junctions were disengaged
HUVEC cells [1]; 1 nM
  time of treatment within which HUVEC cell shrinkage was caused: ≤ 50 min
  time of treatment within which HUVEC cell shrinkage was induced: ≤ 1 h
HUVEC cells [1]; [4]
  HUVEC cell shrinkage / morphological change: Induces HUVEC Cell Shrinkage; also recorded: caused HUVEC cell shrinkage; also recorded: induced shrinkage of HUVEC cells
HUVEC cells [1]; comparison Compound 249 vs CA4
  effect on HUVEC cell morphology (shrinkage) compared with CA4: stronger effect on both shrinkage and migration than CA4; also recorded: more potent effect on HUVEC cell morphology than CA4
HUVEC cells [2]
  inhibitory effect on HUVEC migration in vitro (overall): potent inhibitory effect
HUVEC cells [2]; 1 nM
  absolute migrated cell numbers (quantitative analysis, FIG. 5): similar
  time after treatment at which the difference in migration inhibition between Compound 249 and CA4 was noticeable (FIG. 6): ≤ 4 h
  inhibition of HUVEC migration to the blank area: migration inhibition; also recorded: Inhibits HUVEC Migration; also recorded: significantly blocked migration; also recorded: inhibited HUVEC cell migration
HUVEC cells [2]; 5 nM
  absolute migrated cell numbers (quantitative analysis, FIG. 5): similar
  inhibition of HUVEC migration to the blank area: significantly blocked migration
HUVEC cells [2]; comparison Compound 249 vs CA4
  inhibition of HUVEC migration compared with CA4: stronger effect on both shrinkage and migration than CA4
